Test results from patent US20060130266A1, “Dermal drug delivery system” (priority 2004, published 2006).

Assays:
[1] = In vitro skin permeation of angiotensin II, Franz cell infinite dose, EIA analysis; type: in vitro ADME, human
Method: Analysis of the peptide was carried out using an enzyme immunoassay (EIA) as described in the EIA booklet. Briefly, a competitive enzyme immunoassay which detects Ang II in biological matrices was employed. The principle of the assay is based upon the competition for antibody binding sites between biotinylated and non-biotinylated peptides. The biotin group on the biotinylated peptide is then conjugated to SA-HRP which in turn reacts with another substrate ([…]) leading to the formation of colour. The absorbance recorded from each well is a direct measure of the extent of binding for each peptide with the antibody. Absorbance was measured using a spectrophotometer. The method was validated by calibrating the response at different concentrations of the peptide (data not shown) and also the ability of the method to assess different concentrations of the penetrant in the presence of any matrices was investigated.
(§1) This is a well established physical method of enhancing skin permeation, in vitro, which involves the use of electric current to permeabilise skin and/or promote the migration of drug ions across skin (Cullander, 1992; Guy et al., 2001; Kalia et al., 2004). Anodal treatment was conducted by placing the anode electrode in the donor compartment and the opposite electrode (cathode) in the receptor compartment of the Franz cell. Cathodal iontophoresis was conducted vice versa. The current treatment protocols employed were either • (a) iontophoresis: dose was administered simultaneously with current or • (b) post-iontophoresis: dose applied immediately after skin exposure to current. • A current intensity of 0.40 mA was employed for a 10 min period during both protocols. Novel Device (Rotatinig Brush) Procedure

[2] = In vitro skin permeation, Franz cell pseudo-finite dose study (acyclovir and CF); type: in vitro ADME, human; details: for Amount in receptor after 60 min: Zovirax cream spiked with 3H-ACV; for EF: acyclovir, vs untreated skin
Method: Zovirax® spiked with ^3H-ACV was used as the formulation for the entire study. Briefly, 300 μl of ^3H ACV was placed into a 1.5 ml centrifuge tube and evaporated off, over a stream of air. Approximately 1 g of Zovirax® was weighed into the centrifuge tube and carefully mixed with a fine spatula to achieve a homogenous mix. To test for homogeneity, 3 random samples (top, middle and bottom) were taken and determined for radioactivity via scintillation counting.
as §1, with “Anodal” for “This is a well established physical method of enhancing skin permeation, in vitro, which involves the use of electric current to permeabilise skin and/or promote the migration of drug ions across skin (Cullander, 1992; Guy et al., 2001; Kalia et al., 2004). Anodal”
Finite dose permeation experiments were performed using similar conditions as described above. The Franz cell studies were carried out without the use of a donor well, in order to allow for the placement of the iontophoretic device over the epidermal membrane. […] The effectiveness of the seal was confirmed if leakage of receptor fluid from the region of contact between skin and adhesive was not observed.
A formulation with a target dose of approximately 9±1 mg/cm^2 (ACV) and 20±2 mg/cm^2 (CF) was applied to the epidermal membrane surface using a previously calibrated positive displacement pipette. Selected control experiments were then performed as described above (anodal and cathodal iontophoresis was performed by simultaneous application of dose and current over a 10 min period for CF and ACV respectively). At certain time intervals 200 μl of the receiver fluid was carefully withdrawn from the receiver fluid (maximum duration of 4 h). Approximately 4 ml of scintillation cocktail was then added and the ACV sample analysed by scintillation counting, whereas the other penetrant was assayed via the HPLC method already described.

[3] = brush B 10 s, 300 Nm^−2, 80 rpm
[4] = brush B 30 s, 300 Nm^−2, 80 rpm
[5] = brush B 60 s, 300 Nm^−2, 80 rpm

Structure (SMILES): CC[C@H](C)[C@H](NC(=O)[C@H](Cc1ccc(O)cc1)NC(=O)[C@@H](NC(=O)[C@H](CCCNC(=N)N)NC(=O)[C@@H](N)CC(=O)O)C(C)C)C(=O)N[C@@H](Cc1cnc[nH]1)C(=O)N1CCC[C@H]1C(=O)N[C@@H](Cc1ccccc1)C(=O)O [Ang II, Angiotensin II]
- EF ([1]; 4 h, delipidisation vs untreated skin): 58
- EF ([1]; 4 h, post-iontophoresis vs untreated skin): 1.7
- EF ([1]; 4 h, rotating brush (brush B) vs untreated skin): 72
- EF ([1]; 4 h, tape-stripping vs untreated skin): 53
- EF ([1]; 24 h, delipidisation vs untreated skin): 49
- EF ([1]; 24 h, post-iontophoresis vs untreated skin): 6
- EF ([1]; 24 h, rotating brush (brush B) vs untreated skin): 63
- EF ([1]; 24 h, tape-stripping vs untreated skin): 27
- Amount in receptor after 4 h ([1]; delipidisation): 15.71 ± 2.85 ng/cm^2
- Amount in receptor after 24 h ([1]; delipidisation): 83.03 ± 24.28 ng/cm^2
- Amount in receptor after 24 h ([1]; post-iontophoresis): 10.02 ± 6.28 ng/cm^2
- Amount in receptor after 4 h ([1]; post-iontophoresis, value on sample re-analysis): 0.46 ± 0.15^+ ng/cm^2
- Amount in receptor after 4 h ([1]; rotating brush (brush B)): 19.45 ± 0.55 ng/cm^2
- Amount in receptor after 24 h ([1]; rotating brush (brush B)): 107.49 ± 19.66 ng/cm^2
- Amount in receptor after 4 h ([1]; tape-stripping): 14.44 ± 4.73 ng/cm^2
- Amount in receptor after 24 h ([1]; tape-stripping): 46.93 ± 15.62 ng/cm^2
- Amount in receptor after 4 h ([1]; untreated skin, 1 mg/ml in PBS): 0.27 ± 0.23 ng/cm^2
- Amount in receptor after 24 h ([1]; untreated skin, 1 mg/ml in PBS): 1.69 ± 1.01 ng/cm^2

Structure (SMILES): Nc1nc2c(ncn2COCCO)c(=O)[nH]1 [acyclovir, Acyclovir]
- Amount in receptor after 60 min [2, 3]: 5.06 ± 1.88 µg/cm^2
- Amount in receptor after 60 min [2, 4]: 12.5 ± 4.02 µg/cm^2
- Amount in receptor after 60 min [2, 5]: 30.91 ± 5.45 µg/cm^2
- Amount in receptor after 60 min ([2]; cathodal iontophoresis 10 min, 0.40 mA): 4.95 ± 2.35 µg/cm^2
- Amount in receptor after 60 min ([2]; untreated skin): 0.14 ± 0.08 µg/cm^2
- EF [2, 3]: 36
- EF [2, 4]: 89
- EF [2, 5]: 220
- EF ([2]; cathodal iontophoresis 10 min): 35
- Increase in enhancement factor compared to iontophoresis ([2]; brush B at maximum treatment time (60 s)): ca. 600%
